# Laboratory results as given in patent US6372884B1, “Biologically active compounds and methods of constructing and using the same” (priority 1987, dated 2002).
# Ends that are not written are not given here.
# Tests used:
# [1] = test system: monoclonal antibody 9BG5; assay: Inhibition of binding of radioiodinated reovirus type 3 particles to 9BG5 coated wells; set-up: species or system mouse; details: for binding to neutralizing monoclonal antibody 9BG5, variant peptide compared with VL peptide: relative to VL peptide
# Experimental: The wells of microtiter plates were coated with neutralizing anti-reovirus type 3 monoclonal antibody 9BG5 or irrelevant class matched monoclonal A11 by adsorption to staphylococcal protein A (SPA). SPA (sigma Chemical Co., St. Louis, Mo.) was diluted to 5 μg/ml in 0.1 M NaHCO3 pH 9.6 and 50 μl/well dispensed into 96 well polystyrene plates. Following overnight incubation at 4° C., the. wells were decanted, washed three times in PBS, and blocked with 2% BSA in PBS with 0.1% NaN3 for one hour at 37° C. The wells were decanted, washed three times in PBS and monoclonal antibody 9BG5 diluted to 10 μg/ml in 1% BSA in PBS with 0.1% NaN3 was added (50 μl/well) for 1-3 hours at 37° C. […] The wells were decanted and washed three times in PBS. Competitors were added at the concentrations noted (100 μl/well) diluted in 0.5% BSA in 5 mM phosphate buffer with 0.45% NaCl and preincubated for 45-60 minutes at 23° C. […] Following preincubation with inhibitors, radioiodinated reovirus type 3 particles diluted in 1% BSA in PBS with 0.1% NaN3 were added (5-10×10^5 CPM per well), and the incubation continued for 45 minutes. Wells were decanted, washed 8-10 times with PBS and the CPM bound determined. […] As shown in FIGS. 10A-C, 6,700 CPM were bound to 9BG5 coated wells and 500 CPM were bound to control (A11 ) coated wells in the absence of inhibitors. The mean ± standard deviation of binding inhibition (Determined as noted for FIG. 9) of replicate wells is shown. Control peptide B was used in this study. The competitor peptides in FIGS. 15A and 15B are those described herein. Competitor peptide VLA6 is identical to VL except that alanine is substituted for asparagine at position 6.
# [2] = test system: C3H female mouse spleenocytes; assay: Lymphocyte proliferation with or without concanavalin A; assay type: cell-based; details: for inhibition of con A induced lymphocyte proliferation: presence of con A, FIGS. 7B, 8A, 8B; for biologic activity compared with VL peptide: summary statement in the discussion; for inhibition of spontaneous lymphocyte proliferation: absence of con A, FIG. 7A
# [3] = Rate of loss of sulfhydryls on air oxidation (Ellman determination); assay type: physicochemical; details: 2 mg/ml in 0.1 M NaHCO3, 37° C., exposed to air, FIG. 23
# [4] = Size-exclusion chromatography of oxidized peptides (Sephadex G-10); assay type: physicochemical; details: reduced versus non-reduced peptides
# [5] = test system: reovirus type 3 receptor on L cells; assay: Inhibition of binding of radioiodinated reovirus particles to L cells; set-up: species or system murine; details: for binding to the reovirus type 3 receptor compared with VL peptide: summary statement in the discussion
# [6] = test system: reovirus type 3; set-up: species or system Balb/c mice; details: mouse, in vivo
# [7] = test system: reovirus type 1; set-up: species or system Balb/c mice; details: mouse, in vivo
# [8] = test system: reovirus type 3; set-up: species or system Balb/c mice; details: mouse, in vivo; remark: listed apart in the source
# [9] = test system: reovirus type 1; set-up: species or system Balb/c mice; details: mouse, in vivo; remark: listed apart in the source
# [10] = test system: neutralizing monoclonal antibody 9BG5; assay type: binding, mouse
# [11] = test system: reovirus type 3 receptor (Reo3R); assay: Flow cytometry: inhibition of 87.92.6 binding to cells; set-up: species or system murine; details: for inhibition of binding of 87.92.6 to murine L cells / inhibition of binding of 87.92.6 to R1.1 thymoma cells: FIG. 29; for inhibition of binding of 87.92.6 to R1.1 thymoma cells: R1.1 cells
# Experimental: The ability of peptides to inhibit antibody binding to cells was determined by preincubation of the cells with varying amounts of inhibitor (in 100 μl dH2O) for between 30 minutes and 1 hour at 23° C. Cells (either L cells or R1.1 cells) were washed in 1% BSA/PBS/0.1% NaN3, and resuspended at 10^7/ml. 100 μl of cells were then added in 1% BSA/PBS/0.1% NaN3, and the incubation continued for 20-30 minutes. Antibodies (5 or 10 μl were added for an additional 20 minutes at 23° C. Ice cold 1% BSA/PBS/0.1% NaN3, was added, the cells centrifuged and washed prior to counterstaining with a 1:100 dilution of FITC goat anti-mouse Ig (Fisher Scientific) in 1% BSA/PBS/0.1% NaN3. The cells were washed twice and fluorescence intensity determined. Inhibition of binding was calculated as noted above with mean channel number utilized in place of CPM.
# To assess the affinity of the cyclic peptides for the reovirus type 3 receptor (Reo3R), they were utilized in a series of assays to inhibit binding of 87.92.6 or control antibodies to specific receptors. […] The inhibition by VLC9C16 peptide was specific as binding of isotype matched monoclonal H013.4 to Thy2 molecules was not inhibited by VLC9C16 peptide (FIG. 30). Thus, VLC9C16 peptide is a specific Reo3R ligand with enhanced affinity compared with its linear analog.
# [12] = test system: reovirus type 3; assay: Delayed type hypersensitivity (footpad swelling), reovirus type 3; assay type: in vivo, mice
# Experimental: (§1) FIG. 17 illustrates data for mice immunized with the reovirus types noted by injection of 10^7 PFU subcutaneously, or with the peptides noted at a dose of 100 μg split into two injections subcutaneously; one week later, mice were challenged with virus or peptides in the footpads; footpad swelling was determined as indicated in the following description 48 hours after challenge; the mean +SEM for groups of mice is shown.
# (§2) For the study of DTH response, groups of mice were inoculated with either synthetic peptide or live reovirus type 3 subcutaneously (s.c.) in two separate sites on the dorsal flanks of the animal (over each hind limb); 50 μg of a synthetic peptide or 10^7 viral particles/0.2 ml were given in separate injections of 0.1 ml vol. Six days later, animals were challenged in the left footpad with 3×10^7 viral particles suspended in saline containing 2% gelatin (30 μl). Footpad swelling was recorded 24 hr later in a blind fashion (Greene, M. I. and Weiner, H. L., J. Immunol. 125:283-287, 1980). Four animals per group were studied, and the magnitude of the response was determined by comparing the challenged left footpad to the untreated right footpad.
# [13] = test system: L cells; assay: Inhibition of L cell DNA synthesis (tritiated thymidine); assay type: cell-based, murine; details: tritiated thymidine incorporation after 24 hours, FIGS. 3 and 4
# Experimental: Reovirus type 3 inhibits host cell DNA synthesis upon receptor perturbation. This effect is not due to infection of cells as replication defective reovirus type 3 particles retain this property. L cells were cultured at 5 ×10^4 cells per well of 96 well microtiter plates in 100 μl media for 24 hours. Reovirus type 3 particles (A) were added and incubated for an additional 24 hours prior to the addition of tritiated thymidine. Purified monoclonal antibodies 87.92.6 or HO 22.1 (B) were added for 1 hour at 37° C., then the culture media removed and replaced with 100 μl fresh media for 24 hours, prior to the addition of tritiated thymidine. The cells were incubated for an additional 4-6 hours and counts per minute (CPM) incorporated were determined.
# 87.92.6 is effective only as a native antibody while monomeric Fab fragments have no effect. VL peptide was synthesized with an additional amino terminal cysteine residue (VLSH) to form a dimeric peptide. VLSH peptide was dimerized by stirring a 5 mg/ml solution in 0.1 M ammonium bicarbonate overnight at 23° C. exposed to air. The peptides were then lyophilized. Dimerization was confirmed by Ellman determination according to the procedure of Ellman, G. L. Arch. […] Tritiated thymidine was added for an additional 4-6 hours, and counts per minute (CPM) incorporated was determined. Per cent inhibition was determined by the formula: [formula]
# [14] = test system: reovirus type 3 receptor on R1.1 cells; assay: Down-modulation of reovirus type 3 receptor, flow cytometry with 87.92.6; assay type: cell-based, murine; details: for reovirus type 3 receptor expression (decrease in mean channel fluorescence): peptides 100 μg/ml, three experiments, FIG. 6; for level of expression of the reovirus type 3 receptor: 1 hour at 37° C., up to 500 μg/ml peptide, FIGS. 5A-D
# [15] = test system: reovirus type 1; assay: Delayed type hypersensitivity (footpad swelling), reovirus type 1; assay type: in vivo, mice; details: footpad challenge with virus
# Experimental: as §1, §2
# [16] = test system: Thy 1.2 molecules on R1.1 cells; assay: Expression of Thy 1.2 molecules, flow cytometry with HO 13.4; assay type: cell-based, murine; details: for expression of Thy 1.2 molecules: 1 hour at 37° C., up to 500 μg/ml peptide, FIGS. 5A-D
# [17] = test system: 9B.G5; assay: Competitive RIA: inhibition of 9B.G5 - 87.92.6 interaction; assay type: binding; details: liquid phase assay, FIGS. 25 and 26
substance,measurement,setting,value
KPGKTNKLLIYSASTLQ [VLA13],"binding to neutralizing monoclonal antibody 9BG5, variant peptide compared with VL peptide",[1],increased binding
same,inhibition of con A induced lymphocyte proliferation,[2],increased effect
KPGKTNKCLIYSGSTCQ (cysteine pairing not given here) [VLC8C16 peptide],rate of loss of sulfhydryls,[3],most rapid loss of sulfhydryls
same,molecular form following oxidation by size-exclusion chromatography,[4],remained chiefly as monomers
KPGKTNKLLIYSGSALQ [VLA15],"binding to neutralizing monoclonal antibody 9BG5, variant peptide compared with VL peptide",[1],increased binding to neutralizing monoclonal antibody
same,inhibition of con A induced lymphocyte proliferation,[2],attenuated
same,biologic activity compared with VL peptide,[2],decreased biological activity
same,binding to the reovirus type 3 receptor compared with VL peptide,[5],decreased binding to the reovirus type 3 receptor
"KSGNASTPQQLQNLTLDIRQR [control peptide, control peptide, unrelated to this system, reference compound]",neutralization of L-cell lysis by reovirus type 3 by immune serum,[6],no effect
same,neutralization of L-cell lysis by reovirus type 1 by immune serum,[7],no effect
same,binding of immune serum to type 3 virus coated plates,[8],bound poorly
same,binding of immune serum to type 1 virus coated plates,[9],bound poorly
same,specific binding of 9BG5 to peptide coated wells,[10],No significant binding
"KPGKTNKLLIYSGSTLQ [VL peptide, amino acids 39-55 of the light chain variable region of 87.92.6]",inhibition of binding of reovirus type 3 particles to 9BG5,[1]; FIGS. 10A-C,inhibits binding
same,inhibition of binding of 87.92.6 to murine L cells,[11],less effective competitor
same,inhibition of binding of 87.92.6 to R1.1 thymoma cells,[11],ineffectual
same,DTH response to reovirus type 3 after immunization with peptide,"[12]; footpad challenge with virus, FIGS. 15A and 15B",significant DTH responses
same,DTH to the peptide in animals primed with type 3 virus,"[12]; priming with type 3 virus, challenge with peptide",significant DTH
same,inhibition of DNA synthesis by L cells,[13],no effect
same,reovirus type 3 receptor expression (decrease in mean channel fluorescence),[14],no effect
same,inhibition of spontaneous lymphocyte proliferation,[2],no significant effect
same,inhibition of binding of variant K to L cells,[5]; FIGS. 11A and 11B,inhibits binding
same,inhibition of binding of reovirus type 3 to L cells,[5]; FIGS. 11A-D,inhibits binding
same,inhibition of binding of reovirus type 1 to cells,[5]; reovirus type 1 utilizes a distinct receptor,not inhibited
same,DTH response to reovirus type 1 after immunization with peptide,[15],did not demonstrate significant DTH responses
same,specific binding of 9BG5 to peptide coated wells,[10],small amount of binding
KPGKTNKLLCYSGSTCQ (cysteine pairing not given here) [VLC10C16 peptide],rate of loss of sulfhydryls,[3],more slowly
same,molecular form following oxidation by size-exclusion chromatography,[4],migrated more rapidly
Cys-Lys-Pro-Gly-Lys-Thr-Asn-Lys-Leu-Leu-Ile-Tyr-Ser-Gly-Ser-Thr-Leu-Gln (CKPGKTNKLLIYSGSTLQ; also: dimeric) [VLSH peptide],inhibition of DNA synthesis by L cells,[13],marked inhibition
same,expression of Thy 1.2 molecules,[16],does not effect
same,expression of Thy 1.2 molecules (decrease in mean channel fluorescence),"[16]; peptides 100 μg/ml, FIG. 6",without effecting
same,level of expression of the reovirus type 3 receptor,[14],specifically down-modulates
same,reovirus type 3 receptor expression (decrease in mean channel fluorescence),[14],specifically down-modulated
same,inhibition of spontaneous lymphocyte proliferation,[2],markedly inhibited
KPGKTNKLLIYAGSTLQ [VLA12],"binding to neutralizing monoclonal antibody 9BG5, variant peptide compared with VL peptide",[1],reduced binding to neutralizing monoclonal antibody
same,inhibition of con A induced lymphocyte proliferation,[2],attenuated
same,biologic activity compared with VL peptide,[2],reduced biologic activity
same,binding to the reovirus type 3 receptor compared with VL peptide,[5],reduced binding to the reovirus type 3 receptor
"QGLEWIGRIDPANG [VH peptide, amino acids 43-56 of the heavy chain variable region of 87.92.6 including CDR II]",interaction with the reovirus type 3 receptor (Reo3R),[11],does not significantly interact
same,inhibition of binding of 87.92.6 to murine L cells,[11],no effect
same,inhibition of binding of 87.92.6 to R1.1 thymoma cells,[11],no effect
same,expression of Thy 1.2 molecules,[16],does not effect
same,level of expression of the reovirus type 3 receptor,[14],does not effect
same,inhibition of 9B.G5 - 87.92.6 interaction,[17],able to inhibit
same,specific binding of 9BG5 to peptide coated wells,[10],only achieved background levels
